From patent US20260056197A1, “METHOD FOR MEASURING TRACP-5b AND KIT THEREFOR” (NITTO BOSEKI CO., LTD., priority 2023, published 2026)

Tests used:
Format in all cases: biochemical
[1] = target: T1, TRACP-5a (Homo sapiens, UniProt P13686); experiment: Test 2: study of concentration of TRACP-5a inhibitor (enzyme method); conditions: Table 8; for Activity value 5a: 8 U/L TRACP-5a solution, control 8.0; for 5b/5a ratio: control 0.9
T1 construct: purchased R&D Systems, Inc
T1 sequence (P13686 22-325): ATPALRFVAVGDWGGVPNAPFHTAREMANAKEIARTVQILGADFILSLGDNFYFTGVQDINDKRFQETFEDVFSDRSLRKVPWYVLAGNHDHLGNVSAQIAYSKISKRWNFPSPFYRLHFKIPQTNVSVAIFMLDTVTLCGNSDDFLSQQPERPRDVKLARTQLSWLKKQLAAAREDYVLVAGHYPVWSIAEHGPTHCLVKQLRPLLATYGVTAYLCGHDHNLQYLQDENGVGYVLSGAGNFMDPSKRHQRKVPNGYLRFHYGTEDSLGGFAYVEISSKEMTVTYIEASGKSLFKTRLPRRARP
Method: (§1) For the measurement, Hitachi automatic analyzer model 7180 (Hitachi High-Tech Corporation) was used. To 16 μL of the 7 U/L TRACP-5b solution, or the 7 U/L TRACP-5a solution or the 8 U/L TRACP-5a solution, 200 μL of the chromogenic substrate solution containing an evaluation compound was added to start an enzymatic reaction, and the absorbance (primary wavelength: 405 nm, secondary wavelength: 480 nm) was measured for 516.0 seconds starting at 340.5 seconds after the beginning of the enzymatic reaction. The amount of absorbance change per minute (the amount of absorbance change per unit time during the enzymatic reaction) was determined from the absorbance change between both the time points.
(§2) On the other hand, serial dilutions of a TRACP-5b reference solution with known activity in a 22 mM MES buffer solution (pH 5.0) as well as a 22 mM MES buffer solution (pH 5.0) as a blank were prepared; the serial dilutions of the TRACP-5b reference solution were measured using the chromogenic substrate solution containing each evaluation compound, thereby producing a standard straight line for the TRACP-5b. In addition, the serial dilutions of the TRACP-5b reference solution were measured using the chromogenic substrate solution without any evaluation compound in the same manner, thereby producing a standard straight line for the TRACP-5b. The chromogenic substrate solution containing each evaluation compound and the chromogenic substrate solution without any evaluation compound were used to measure the TRACP-5b solution and the TRACP-5a solution, and these standard straight lines were used to calculate activity values from the obtained amounts of absorbance change.
(§3) For dextran sulfate sodium (5K), dextran sulfate sodium (50K), sodium polyvinyl sulfonate (5K), and sodium vinylsulfonate, the influence of the concentration on the inhibitory activity was studied.
(§4) The concentration of each evaluation compound in the measurement reagent (chromogenic substrate solution) was adjusted as follows.
(§5) A 7 U/L TRACP-5b solution and a 7 U/L TRACP-5a solution were used in the test using a reagent containing dextran sulfate sodium (5K) and dextran sulfate sodium (50K); a 7 U/L TRACP-5b solution and a 7 U/L or 8 U/L TRACP-5a solution were used in the test using a reagent containing sodium polyvinyl sulfonate (5K); and a 7 U/L TRACP-5b solution and an 8 U/L TRACP-5a solution were used in the test using a reagent containing sodium vinylsulfonate.
(§6) The chromogenic substrate solution having the same composition as in Test 1 was used, except that the concentration of each evaluation compound was as described above. The measurement method was carried out in the same procedure as in Test 1.

[2] = tested on: TRACP-5b; experiment: as above; conditions: Table 8, 7 U/L TRACP-5b solution, control 6.9
Method: as §1, §2, §3, §4, §5, §6

[3] = target: T1, TRACP-5a; experiment: Evaluation of TRACP-5a inhibitor in EIA method; conditions: for 5b/5a ratio: Table 14, 0.1 mass % evaluation compound in chromogenic substrate solution, control without compound 1.3; for Abs. 405 nm 5a: Table 14, antibody-immobilized plate, 0.1 mass % evaluation compound in chromogenic substrate solution, 7 U/L TRACP-5a solution, control without compound 0.1956
Method: (§7) A TRACP-5b monoclonal antibody (Accession Number IPOD FERM BP-7890) was diluted with PBS (8 mM disodium hydrogenphosphate, 1.5 mM sodium dihydrogenphosphate, 2.7 mM KCl, and 137 mM NaCl; pH 7.5) to 10 µg/mL, and 100 μL of the antibody-containing solution was added to each well of an ELISA plate (manufactured by Thermo Fisher Scientific, Inc., product number 468667). The solution was left to stand overnight under refrigeration, then washed 3 times with 300 μL of TBS-T (50 mM Tris-HCl, 150 mM NaCl, and 0.05% Tween 20; pH 7.5), then 300 μL of TBS containing 1.5% BSA was added, and the mixture was left to stand overnight under refrigeration.
(§8) After the TBS containing 1.5% BSA was removed from the prepared antibody-immobilized plate, 100 μL of TBS (50 mM Tris-HCl and 150 mM NaCl, pH 7.5) and 50 μL of the 7 U/L TRACP-5b solution or the 7 U/L TRACP-5a solution were added to each well, and the mixture was reacted for 1 hour under stirring (25° C., 700 rpm). After washing 3 times with 300 µL of TBS-T, 100 μL of a chromogenic substrate solution (5 mM 2-chloro-4-nitrophenyl phosphate, 109 mM MES, and 40 mM sodium tartrate; pH 6.6) to which the evaluation compound was added at a concentration of 0.1 mass % was added to each well, and the plate was left to stand at 37° C. for 1 hour. Thereafter, 50 μL of 0.5 N NaOH was added, and the absorbance (primary wavelength: 405 nm, secondary wavelength: 490 nm) was measured with a plate reader.

[4] = tested on: TRACP-5b; experiment: Evaluation of TRACP-5a inhibitor in EIA method; conditions: Table 14, antibody-immobilized plate, 0.1 mass % evaluation compound in chromogenic substrate solution, 7 U/L TRACP-5b solution, control without compound 0.2477
Method: as §7, §8

[5] = tested on: TRACP-5b; experiment: Test 1: evaluation of TRACP-5a inhibitor in an enzyme method; conditions: Table 4; 0.1 mass % evaluation compound in chromogenic substrate solution; 7 U/L TRACP-5b solution; control without compound 6.9
Method: The amount of absorbance change per minute (the amount of absorbance change per unit time during the enzymatic reaction) was determined from the absorbance change between both the time points.
as §2

[6] = target: T1, TRACP-5a; experiment: as above; conditions: Table 4, 0.1 mass % evaluation compound in chromogenic substrate solution; for Activity value 5a: 7 U/L TRACP-5a solution, control without compound 6.5; for 5b/5a ratio: control without compound 1.1
Method: TRACP-5b manufactured by Nittobo Medical Co., Ltd. and TRACP-5a manufactured by R&D Systems, Inc. were diluted with a 22 mM MES buffer (pH 5.0) to prepare a 7 U/L TRACP-5b solution and a 7 U/L TRACP-5a solution, and the solutions were used as measurement samples. In the measurement with sodium hyaluronate, a 7 U/L TRACP-5b solution and an 8 U/L TRACP-5a solution prepared in the same manner were used.
A chromogenic substrate solution having the following composition was used. • 5 mM 2-chloro-4-nitrophenyl phosphate • 109 mM MES • 40 mM sodium tartrate • 0.1 mass % evaluation compound • pH 6.6
as §1, §2
The measurement using sodium hyaluronate was performed in a separate batch from that with other evaluation compounds.

Sodium vinylsulfonate [Example 5]
Activity value 5a ([1]; VSA Na 0.0200 mass %): 4.5 U/L | 5b/5a ratio ([1]; VSA Na 0.0200 mass %): 1.5 | Activity value 5b ([2]; VSA Na 0.0200 mass %): 6.9 U/L

β-cyclodextrin sodium sulfate [Comparative example 1, reference compound]
5b/5a ratio [3]: 2.3 | Abs. 405 nm 5a [3]: 0.0853 | Abs. 405 nm 5b [4]: 0.1971 | Activity value 5b [5]: 6.7 U/L | Activity value 5a [6]: 2.3 U/L | 5b/5a ratio [6]: 2.9

C=CS(=O)(=O)[O-].[Na+] [Example 5, Sodium vinylsulfonate]
5b/5a ratio [3]: 3.4 | Abs. 405 nm 5a [3]: 0.0775 | Abs. 405 nm 5b [4]: 0.2600 | Activity value 5a ([1]; VSA Na 0.0100 mass %): 6.8 U/L | 5b/5a ratio ([1]; VSA Na 0.0100 mass %): 1.0 | Activity value 5a ([1]; VSA Na 0.0150 mass %): 5.6 U/L | 5b/5a ratio ([1]; VSA Na 0.0150 mass %): 1.2 | Activity value 5b ([2]; VSA Na 0.0100 mass %): 6.8 U/L | Activity value 5b ([2]; VSA Na 0.0150 mass %): 6.8 U/L | Activity value 5b [5]: 6.5 U/L | Activity value 5a [6]: 1.6 U/L | 5b/5a ratio [6]: 4.1
